The conditions of data set [1]: after HMB is fed; cited from earlier work.
For data set [2], the system named is Salmonella enterica subsp. enterica Serovar Enteritidis (ATCC 13076). Nature of the data set: Salmonella enumeration on HMB-coated, inoculated pet food kibbles (Studies 1-3). In kind it is cell-based.
Data set [3] has the same test system. The data set is described as follows: Overnight enrichment of subsamples to recover damaged Salmonella (presence/absence). In kind it is cell-based. The following applies: for Salmonella growth in enriched samples: Study 1, 0.9 and 1.5%. The method, then:
Enriched samples were then spread plated to XLD, incubated at 37° C. for 24 h, and growth of black colonies typical for Salmonella were noted (presence/absence result, not quantitative).
From the coated and inoculated samples, 25 g subsamples were collected after the designated number of storage days. The 25 g subsample was mixed with 225 ml of buffered peptone water (BPW; Becton, Dickinson and Company, Franklin Lakes, N.J.) and stomached for 15 seconds to homogenize. The homogenate was serially diluted using BPW and spread plated onto Xylose Lysine Desoxycholate agar (XLD; Becton, Dickinson and Company, Franklin Lakes, N.J.) in duplicate. All inoculated XLD plates were incubated at 37° C. for 24 hours. After incubation, plates were enumerated by counting black colonies, typical for Salmonella. The number of observed colonies was multiplied by the dilution factor to determine the total count in cfu/g. Representative isolates from day 0 were confirmed as Salmonella through serotyping to ensure the recovered counts represent the inoculated culture. Counts for the positive and negative controls were also recorded. In addition, on the first sample date that counts of zero were recovered, the subsample was enriched overnight to allow damaged Salmonella cells to be recovered. Enriched samples were spread plated to XLD, incubated at 37° C. for 24 hours, and growth of black colonies typical for Salmonella were noted (presence/absence result, not quantitative).
Based on the results from enumeration on day 1, 2, 7 and 14, the subsample was retained and enriched to allow damaged cells to be recovered. Enriched samples were spread plated to XLD.

For data set [4] the following is noted: healthy young or old adults; cited from earlier work.

Marks after values point to notes of the source that are not given here.

Turning to `CC(C)(O)CC(=O)O` [HMB, β-hydroxy-β-methylbutyrate], in data set [1], the “Loss of HMB to urine” value is recorded as 20-50%. Further, the “Salmonella enumeration (limit of detection)” value in data set [2] (Study 1, both treatments (0.9 and 1.5%), day 1) is listed as less than 100 cfu/g; in data set [2] (Study 1, both treatments (0.9 and 1.5%), day 2, 7 and 14), less than 10 cfu/g. For the same molecule, the “Reduction of Salmonella artificially inoculated to the kibble” value in data set [2] (Study 1, coating at 0.9 and 1.5%, 14-day test period) is listed as “effective”. Further, the “Salmonella growth in enriched samples” value is “positive” in data set [3] (day 1 and 2); “negative” in data set [3] (day 7 and 14). Besides, the Side effects entry in data set [4] was “no side effects”.

Take `CC(C)(O)CC(=O)O` [HMBFA, β-hydroxy-β-methylbutyric acid]: the “Salmonella levels in coated kibbles” value in data set [2] (Study 1, 0.9% (w:w) coating, Day 0) was 5.59 ± 0.22 log10 CFU/g; in data set [2] (Study 1, 0.9% (w:w) coating, Day 1, below limit of detection of 100 CFU/g), 0.00 ± 0^b log10 CFU/g; in data set [2] (Study 1, 0.9% (w:w) coating, Day 2, below limit of detection of 10 CFU/g) it was 0.00 ± 0^c log10 CFU/g; in data set [2] (Study 1, 0.9% (w:w) coating, Day 7, below limit of detection of 10 CFU/g), 0.00 ± 0^c log10 CFU/g; in data set [2] (Study 1, 0.9% (w:w) coating, Day 14, below limit of detection of 10 CFU/g) it was 0.00 ± 0^c log10 CFU/g; in data set [2] (Study 1, 1.5% (w:w) coating, Day 0) it was 4.88 ± 0.19 log10 CFU/g. Moreover, the “Salmonella levels in coated kibbles” value in data set [2] (Study 1, 1.5% (w:w) coating, Day 1, below limit of detection of 100 CFU/g) was 0.00 ± 0^b log10 CFU/g; in data set [2] (Study 1, 1.5% (w:w) coating, Day 2, below limit of detection of 10 CFU/g), 0.00 ± 0^c log10 CFU/g; in data set [2] (Study 1, 1.5% (w:w) coating, Day 7, below limit of detection of 10 CFU/g), 0.00 ± 0^c log10 CFU/g; in data set [2] (Study 1, 1.5% (w:w) coating, Day 14, below limit of detection of 10 CFU/g) it was 0.00 ± 0^c log10 CFU/g; in data set [2] (Study 2, 0.1% (w:w) coating, Day 0), 5.61±0.19 log10 CFU/g; in data set [2] (Study 2, 0.1% (w:w) coating, Day 1) it was 3.50 ± 0.12 log10 CFU/g. Further, the “Salmonella levels in coated kibbles” value in data set [2] (Study 2, 0.1% (w:w) coating, Day 2) is reported as 2.62 ± 0.26 log10 CFU/g; in data set [2] (Study 2, 0.1% (w:w) coating, Day 7), 0.87 ± 0.47 log10 CFU/g; in data set [2] (Study 2, 0.1% (w:w) coating, Day 14, below limit of detection of 10 CFU/g), 0.00 ± 0^b log10 CFU/g; in data set [2] (Study 2, 0.3% (w:w) coating, Day 0) it was 5.62±0.06 log10 CFU/g; in data set [2] (Study 2, 0.3% (w:w) coating, Day 1), 2.85 ± 0.16 log10 CFU/g; in data set [2] (Study 2, 0.3% (w:w) coating, Day 2) it was 1.63 ± 0.32 log10 CFU/g. The “Salmonella levels in coated kibbles” value is 0.67 ± 0.33 log10 CFU/g in data set [2] (Study 2, 0.3% (w:w) coating, Day 7); 0.00 ± 0^b log10 CFU/g in data set [2] (Study 2, 0.3% (w:w) coating, Day 14, below limit of detection of 10 CFU/g); 5.60±0.26 log10 CFU/g in data set [2] (Study 2, 0.5% (w:w) coating, Day 0); 2.09 ± 0.28 log10 CFU/g in data set [2] (Study 2, 0.5% (w:w) coating, Day 1); 0.93 ± 0.52 log10 CFU/g in data set [2] (Study 2, 0.5% (w:w) coating, Day 2); 0.00 ± 0^b log10 CFU/g in data set [2] (Study 2, 0.5% (w:w) coating, Day 7, below limit of detection of 10 CFU/g). Also, in data set [2] (Study 2, 0.5% (w:w) coating, Day 14, below limit of detection of 10 CFU/g), the “Salmonella levels in coated kibbles” value is listed as 0.00 ± 0^b log10 CFU/g. Besides, the “Time to elimination of Salmonella inoculated onto the kibbles” value in data set [2] (Study 1, 0.9 and 1.5% (w:w)) is listed as not above 24 h. For the same molecule, the “Salmonella enumeration (limit of detection)” value is recorded as less than 10 CFU/g in data set [2] (Study 2, 0.5% treatment, days 2, 7 and 14); less than 10 CFU/g in data set [2] (Study 2, day 14 across all treatments). For the same molecule, the “Lowest coating level effective in eliminating the Salmonella inoculum” value in data set [2] (Study 2, by day 14) is on record as “around 0.1 % (w:w)”. The “Salmonella growth in enriched subsamples” value in data set [3] (Study 2, treatment levels below limit of detection on enumeration days 2, 7 and 14) was “positive”.

Consider “calcium β-hydroxy-β-methylbutyrate [CaHMB]”, for which the “Salmonella levels in coated kibbles” value is 7.19±0.04 log10 CFU/g in data set [2] (Study 3, 0.1% (w:w) powder coating, Day 0); 7.11 ± 0.08 log10 CFU/g in data set [2] (Study 3, 0.1% (w:w) powder coating, Day 1); 6.84 ± 0.17 log10 CFU/g in data set [2] (Study 3, 0.1% (w:w) powder coating, Day 2); 3.18 ± 0.03^ log10 CFU/g in data set [2] (Study 3, 0.1% (w:w) powder coating, Day 7); 0 ± 0^b log10 CFU/g in data set [2] (Study 3, 0.1% (w:w) powder coating, Day 14, below limit of detection of 10 CFU/g); 7.17±0.07 log10 CFU/g in data set [2] (Study 3, 0.3% (w:w) powder coating, Day 0). In addition, the “Salmonella levels in coated kibbles” value in data set [2] (Study 3, 0.3% (w:w) powder coating, Day 1) is reported as 7.01 ± 0.07 log10 CFU/g; in data set [2] (Study 3, 0.3% (w:w) powder coating, Day 2), 6.26 ± 0.03 log10 CFU/g; in data set [2] (Study 3, 0.3% (w:w) powder coating, Day 7), 3.17 ± 0.04^ log10 CFU/g; in data set [2] (Study 3, 0.3% (w:w) powder coating, Day 14, below limit of detection of 10 CFU/g), 0 ± 0^b log10 CFU/g; in data set [2] (Study 3, 0.5% (w:w) powder coating, Day 0) it was 7.09±0.04 log10 CFU/g; in data set [2] (Study 3, 0.5% (w:w) powder coating, Day 1) it was 6.15 ± 0.11 log10 CFU/g. In addition, the “Salmonella levels in coated kibbles” value in data set [2] (Study 3, 0.5% (w:w) powder coating, Day 2) is reported as 5.87 ± 0.20 log10 CFU/g; in data set [2] (Study 3, 0.5% (w:w) powder coating, Day 7, below limit of detection of 10 CFU/g), 0 ± 0^b log10 CFU/g; in data set [2] (Study 3, 0.5% (w:w) powder coating, Day 14, below limit of detection of 10 CFU/g), 0 ± 0^b log10 CFU/g; in data set [2] (Study 3, 0.9% (w:w) powder coating, Day 0), 7.08±0.12 log10 CFU/g; in data set [2] (Study 3, 0.9% (w:w) powder coating, Day 1), 6.27 ± 0.06 log10 CFU/g; in data set [2] (Study 3, 0.9% (w:w) powder coating, Day 2), 6.03 ± 0.05 log10 CFU/g. In addition, the “Salmonella levels in coated kibbles” value was 0 ± 0^b log10 CFU/g in data set [2] (Study 3, 0.9% (w:w) powder coating, Day 7, below limit of detection of 10 CFU/g); 0 ± 0^b log10 CFU/g in data set [2] (Study 3, 0.9% (w:w) powder coating, Day 14, below limit of detection of 10 CFU/g); 7.04±0.13 log10 CFU/g in data set [2] (Study 3, 1.5% (w:w) powder coating, Day 0); 6.24 ± 0.07 log10 CFU/g in data set [2] (Study 3, 1.5% (w:w) powder coating, Day 1); 5.87 ± 0.09 log10 CFU/g in data set [2] (Study 3, 1.5% (w:w) powder coating, Day 2); 0 ± 0^b log10 CFU/g in data set [2] (Study 3, 1.5% (w:w) powder coating, Day 7, below limit of detection of 10 CFU/g). The “Salmonella levels in coated kibbles” value in data set [2] (Study 3, 1.5% (w:w) powder coating, Day 14, below limit of detection of 10 CFU/g) is given as 0 ± 0^b log10 CFU/g. For the same molecule, in data set [2] (Study 3, 0.5, 0.9 and 1.5% coated kibbles, day 7), the Salmonella enumeration counts result is reported as “below the limit of detection”. Besides, the “Salmonella enumeration counts (limit of detection)” value in data set [2] (Study 3, all treated kibbles, day 14) is given as less than 10 CFU/g. In data set [2] (Study 3, powdered form, lower levels eliminating after 14 days, higher levels during first week), the “Attenuation of Salmonella on kibbles” value is given as “very effective”. The “Salmonella growth in enriched subsamples” value in data set [3] (Study 3, days 7 and 14 for 0.5, 0.9, 1.5%, day 14 for 0.1 and 0.3%) is on record as “no Salmonella growth”.
